Data reported in PMC7496768, “Understanding Substrate Selectivity of Phoslactomycin Polyketide Synthase by Using Reconstituted in Vitro Systems” (Chembiochem, 2020).

Target: T1, Npt (Streptomyces platensis, UniProt A0AAE6NLM9)
T1 construct: recombinant, expressed in E. coli BL21 (DE3), purified
T1 sequence (A0AAE6NLM9 1-219): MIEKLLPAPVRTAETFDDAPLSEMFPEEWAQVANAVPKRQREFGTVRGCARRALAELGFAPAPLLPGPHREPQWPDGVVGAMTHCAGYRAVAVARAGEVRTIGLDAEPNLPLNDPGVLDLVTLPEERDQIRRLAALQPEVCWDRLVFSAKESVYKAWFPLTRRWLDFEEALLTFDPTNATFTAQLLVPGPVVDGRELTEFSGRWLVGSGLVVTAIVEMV
Assay: phosphopantetheinylation of apo-ACPs
Assay type: biochemical
Details: apo-Pn ACPs as acceptor

CC(C)(COP(=O)(O)OP(=O)(O)OC[C@H]1O[C@@H](n2cnc3c(N)ncnc32)[C@H](O)[C@@H]1OP(=O)(O)O)[C@@H](O)C(=O)NCCC(=O)NCCS [CoA-SH]
phosphopantetheinylation of apo-ACPs: Npt serves as a bona fide Ppant transferase that is able to activate apo‐Pn_ACPs
